# Measured values as given in patent publication US20150080466A1, “DIPHENYL UREA DERIVATIVES AS FORMYL PEPTIDE RECEPTOR MODULATORS” (Allergan, Inc., priority 2013, published 2015).
# Molecular target: T1, FPR2 (Homo sapiens, UniProt P25090)
# T1 construct: expressed in transfected cells
# T1 sequence (P25090 1-351): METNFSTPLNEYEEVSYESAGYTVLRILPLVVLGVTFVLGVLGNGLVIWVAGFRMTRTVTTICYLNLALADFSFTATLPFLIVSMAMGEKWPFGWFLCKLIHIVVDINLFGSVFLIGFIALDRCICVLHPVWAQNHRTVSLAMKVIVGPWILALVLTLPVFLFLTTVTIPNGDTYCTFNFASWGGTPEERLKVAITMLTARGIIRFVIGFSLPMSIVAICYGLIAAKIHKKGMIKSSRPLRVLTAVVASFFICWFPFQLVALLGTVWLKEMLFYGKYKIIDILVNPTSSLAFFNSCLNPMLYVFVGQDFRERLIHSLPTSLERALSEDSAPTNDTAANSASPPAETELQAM
# Assay: Compound-induced calcium activity on FLIPR Tetra in CHO-Gα16 cells stably expressing FPRL1
# Type: cell-based
# Conditions: for FPR2 Ga16-CHO (Rel. eff.): relative efficacy; for EC50: tested at 0.61 to 10,000 nM, read-out: FPR2 Ga16-CHO EC50
# Procedure: CHO-Gα16 cells stably expressing FPRL1 were cultured in (F12, 10% FBS, 1% PSA, 400 μg/ml geneticin and 50 μg/ml hygromycin) and HEK-Gqi5 cells stable expressing FPR1 were cultured in (DMEM high glucose, 10% FBS, 1% PSA, 400 μg/ml geneticin and 50 μg/ml hygromycin). In general, the day before the experiment, 18,000 cells/well were plated in a 384-well clear bottom poly-d-lysine coated plate. The following day the screening compound-induced calcium activity was assayed on the FLIPR^Tetra. The drug plates were prepared in 384-well microplates using the EP3 and the MultiPROBE robotic liquid handling systems. Compounds were tested at concentrations ranging from 0.61 to 10,000 nM. Results are expressed as EC50 (nM) and efficacy values.
FPR2 Ga16-CHO (Rel. eff.),EC50 [nM],Structure (SMILES)
(0.99),2040,"O=C(O)CCCNC(=O)CCc1ccccc1NC(=O)Nc1ccc(Br)cc1 [Compound 4, 4-{[3-(2-{[(4-Bromophenyl)carbamoyl]amino}phenyl)propanoyl]amino}butanoic Acid]"
(1.00),1230,"O=C(O)CCc1ccccc1NC(=O)Nc1ccc(Br)cc1 [Compound 1, 3-(2-{[(4-Bromophenyl)carbamoyl]amino}phenyl)propanoic Acid]"
(1.00),637,"O=C(O)CCNC(=O)CCc1ccccc1NC(=O)Nc1ccc(Br)cc1 [Compound 5, 3-{[3-(2-{[(4-Bromophenyl)carbamoyl]amino}phenyl)propanoyl]amino}propanoic acid]"
(1.00),311,"COC(=O)CCNC(=O)CCc1ccccc1NC(=O)Nc1ccc(Br)cc1 [Compound 3, Methyl3-{[3-(2-{[(4-bromophenyl)carbamoyl]amino}phenyl)propanoyl]amino}propanoate]"
(0.80),180,"COC(=O)CNC(=O)CCc1ccccc1NC(=O)Nc1ccc(Br)cc1 [Compound 6, Methyl {[3-(2-{[(4-bromophenyl)carbamoyl]amino}phenyl)propanoyl]amino}acetate]"
(0.96),922,"COC(=O)CCCNC(=O)CCc1ccccc1NC(=O)Nc1ccc(Br)cc1 [Compound 2, Methyl 4-{[3-(2-{[(4-Bromophenyl)carbamoyl]amino}phenyl)propanoyl]amino}butanoate]"
(0.76),410,"O=C(O)CNC(=O)CCc1ccccc1NC(=O)Nc1ccc(Br)cc1 [Compound 7, {[3-(2-{[(4-Bromophenyl)carbamoyl]amino}phenyl)propanoyl]amino}acetic acid]"
